Entries after “also recorded” stand apart in the source; their conditions may differ. Where no end group is shown, it is not given here. [ ]: non-standard residue; d: D form. Ahx = NCCCCCC(=O)O
How the values were obtained:
[1] = tested on: NOD.Scid mice; experiment: NOD.Scid adoptive transfer model of diabetes progression (blood glucose); assay type: in vivo, mouse; conditions: 7 weeks post adoptive transfer; CD4+ T-cells from treated mice co-transferred with CD25-depleted inducer cells
[2] = tested on: T-cells from NOD mice; experiment: ELISPOT of IL-4 and IFN-γ release by T-cells from treated NOD mice (TH1/TH2 frequency); assay type: in vivo, mouse
Excerpt: Groups of 3-5 NOD mice were immunized subcutaneously (s.c.) with the GAD 65 peptide in CFA (40 nanomoles/mouse) at the tail base. Different groups received either the EGAD-BPI, its single TCR epitope (Signal-1 moiety), or its CD11a peptide (Signal-2 moiety) i.v. (all 40 nanomoles/mouse). After 6-8 days, another identical 40 nanomole injection was given to each mouse, and the next day lymph nodes draining the site of the s.c. injection were made into single cell suspensions for culture. Identical primary cultures were incubated for 96 hours; then, viable T-cells were recovered by density gradient centrifugation. One million of these cells were combined in nitrocellulose-bottomed 96-well plates (Millititer-HA, Millipore, Bedford, Mass.), previously coated (50 μl/well) with mAb to either mouse IFNγ (clone R4-6A2), or mouse IL-4 (clone BVD4-1D11) at a concentration of 10 μg/ml in PBS. Groups of triplicate cultures were incubated with either Concanavalin-A (2 μg/ml), or the Signal-1 peptide moiety plus 20 U/ml recombinant IL2 (R & D Systems). After 72-96 hours of culture at 37° C. and 5% CO2, plates were washed three times with PBS-0.05% Tween-20. In appropriate wells are added biotinylated anti-IFNγ (clone XMG1.2) or biotinylated anti-IL-4 (clone BVD6-24G2) at a concentration of 1 μg/ml and incubated for 1 hour at room temperature. Positive control wells receive known TH1 or TH2 clones in place of normal T-cells. MAb pairs to IL12, IL10, and IL2 are also available and will be used to test for these cytokines in the same assay. All mAb and recombinant controls are purchased from PharMingen (San Diego, Calif.). Finally, plates were washed three times with PBS-Tween, and then exposed to 100 μl of a 1:2000 dilution of streptavidin alkaline phosphatase (Jackson ImmunoResearch, West Grove, Pa.) for 1 h and washed as before. […]

[3] = tested on: MHC-II and ICAM-1 molecules on the APC surface; experiment: Co-capping of ICAM-1 with MHC-II on APC from i.v. treated NOD mice (fluorescence microscopy); assay type: cell-based, mouse; conditions: T-depleted spleenocytes from NOD mice 16 hours after i.v. injection of 40 nanomoles; bio-10-3.62/streptavidin
Experimental: Specifically, it was verified that the peptide binds to MHC molecules on live APC. Briefly, spleen cell density-gradient fractions (from mice), or PBL, or APC lines (from humans) were incubated in round bottom 96-well plates with increasing concentrations of individual biotinylated peptides at 37° C., 5% CO2 for 16 hours. Following binding of the BPI to the APC, Avidin-FITC was incubated with the cells on ice for 30 minutes, followed by biotinylated anti-Avidin for 1 hour, then again with Avidin-FITC. For BPI titrations, increasing concentrations (0.1-100 μM) of the biotinylated derivatives in sterile 0.5% BSA-PBS were incubated with the APC for 16 hours as above. […] Three-color analyses used Cy-Chrome or PE-conjugated antibodies to known surface markers of APC that were commercially available. Avidin-FITC and biotinylated anti-Avidin detection of the bound peptide was as previously described in Murray et al., 24 Eur. J. Immunol. […]
Further support for simultaneous binding of the BPI to MHC-II and ICAM-1 molecules has been observed in co-capping experiments using biotinylated mAb 10-3.62 and streptavidin to cap MHC-II in the presence or absence of the BPI. […] The cells are plated and observed for evidence that a given BPI links ICAM-1 into the MHC-II cap, i.e., by standard fluorescence microscopy and image analysis.

Substance: GAD65(208-217)-[Ac-G-Ac-G-Ac]-CD11a (237-247) (EIAPVFVLLE[Ahx]G[Ahx]G[Ahx]ITDGEATDSG) [EGAD-BPI]
- mice showing hyperglycemia and progression to diabetes [1]: 40%
- IFN-γ production ([2]; T-cells from treated animals stimulated in vitro with mitogen): also increased, although to a lesser extent
- IL-4 production increase ([2]; T-cells from treated animals stimulated in vitro with mitogen, versus saline control, 40 nanomoles/mouse i.v. twice): approximately 10 fold
- IL-4 production ([2]; treated NOD mice versus control mice): abundant IL-4
- co-capping of ICAM-1 with MHC-II [3]: exhibited co-capping of ICAM-1 with MUC-II; also recorded: ICAM-1 was co-capped with MHC-II
